From patent US20100261679A1 (priority 2007, published 2010)

Tests used:
[1] = target: T1, cytoplasmic domain of the human CSF-1R (Homo sapiens, UniProt P07333); assay: In vitro kinase assay for CSF-1R (AlphaScreen); type: biochemical; settings: tested at about 1 μM
T1 construct: Recombinant protein corresponding to the cytoplasmic domain of the human CSF-1R; purchased Invitrogen Corporation, Carlsbad, Calif; U.S.A. PV3249
T1 sequence (P07333 539-972 limits assumed): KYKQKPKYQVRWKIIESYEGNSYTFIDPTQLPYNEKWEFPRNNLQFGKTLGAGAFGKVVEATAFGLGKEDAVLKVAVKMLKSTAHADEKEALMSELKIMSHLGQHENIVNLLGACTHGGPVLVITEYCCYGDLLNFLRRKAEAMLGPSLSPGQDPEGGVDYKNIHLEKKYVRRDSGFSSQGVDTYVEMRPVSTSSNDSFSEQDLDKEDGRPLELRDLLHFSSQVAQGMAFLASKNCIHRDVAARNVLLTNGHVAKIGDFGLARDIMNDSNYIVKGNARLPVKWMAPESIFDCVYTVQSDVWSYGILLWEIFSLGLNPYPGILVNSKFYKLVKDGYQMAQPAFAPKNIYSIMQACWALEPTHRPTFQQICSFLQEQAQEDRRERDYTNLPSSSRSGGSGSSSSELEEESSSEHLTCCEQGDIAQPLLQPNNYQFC
Procedure: The kinase activity of various protein tyrosine kinases can be measured by providing ATP and a suitable peptide or protein tyrosine-containing substrate, and assaying the transfer of phosphate moiety to the tyrosine residue. Recombinant protein corresponding to the cytoplasmic domain of the human CSF-1R was purchased from Invitrogen Corporation, Carlsbad, Calif. U.S.A. (#PV3249). For each assay, test compounds were serially diluted, starting at 25 μM with 3 fold dilutions, in DMSO in 384 well plates then mixed with an appropriate kinase reaction buffer consisting of 50 mM Hepes, 5 mM MgCl2, 10 mM MnCl2, 0.1% BSA, pH 7.5, 1.0 mM dithiothreitol, 0.01% Tween 80 plus […]. Kinase protein and an appropriate biotinylated peptide substrate at 50 nM were added to give a final volume of 20 μL, reactions were incubated for 2 hours at room temperature and stopped by the addition of 10 μL of 45 mM EDTA, 50 mM Hepes pH 7.5. Added to the stopped reaction mix was 30 μL of PT66 Alphascreen beads (Perkin Elmer, Boston, Mass., U.S.A.). The reaction was incubated overnight and read on the Envision (Perkin Elmer). Phosphorylated peptide product was measured with the AlphaScreen system (Perkin Elmer) using acceptor beads coated with anti-phosphotyrosine antibody PT66 and donor beads coated with streptavidin that emit a fluorescent signal at the 520-620 nm emission wave length if in close proximity. The concentration of each compound for 50% inhibition (IC50) was calculated by non-linear regression using XL Fit data analysis software.
CSF-1R kinase was assayed in 50 mM Hepes pH 7.0, 5 mM MgCl2, 10 mM MnCl2, 1 mM DTT, 1 mg/mL BSA, 1.0 μM ATP, and 0.05 μM biotin-GGGGRPRAATF-NH2 (SEQ ID NO:2) peptide substrate. CSF-1R kinase was added at final concentration of 4 nM.

[2] = target: T2, cKIT (Homo sapiens, UniProt P10721); assay: Inhibition of cKIT kinase in an in vitro biochemical assay (alphascreen); settings: tested at about 1 μM
T2 construct: The kinase domain of cKIT was assayed in 50 mM Hepes; purchased Upstate 14-559
Procedure: (§1) The IC50 values for the inhibition of RTKs were determined in the alphascreen format measuring the inhibition by compound of phosphate transfer to a substrate by the respective enzyme. Briefly, the respective RTK domain purchased as human recombinant protein (cKIT Upstate #14-559, PDGFRb Invitrogen #P3082) were incubated with serial dilutions of compound in the presence of substrate and ATP concentrations within 3 times the Km of the enzyme.
(§2) The kinase domain of cKIT was assayed in 50 mM Hepes, pH=7.5, 5 mM MgCl2, 10 mM MnCl2, 1 mM DTT, 0.1% BSA with 0.06 uM biotinylated peptide substrate (GGLFDDPSYVNVQNL-NH2) and 15 μM ATP (ATP KM apparent =15 μM). The kinase domain of PDGFRβ was assayed in 50 mM Hepes, pH=7.5, 20 mM MgCl2, 1 mM DTT, 0.1% BSA with 0.1 μM biotinylated peptide substrate (GGLFDDPSYVNVQNL-NH2) and 10 μM ATP (ATP KM apparent=25 μM). Reactions were incubated at room temperature for 3 to 4 hr and stopped with buffer (20 mM EDTA, 0.01% Tween-20 for both PDGFRβ and cKIT). Alphascreen PY20 beads were added to the stopped cKIT reactions and PY20 Ab/Protein A Alphascreen beads were added to the PDGFRβ stopped reactions. Both reactions were incubated overnight and read on the Alphascreen reader. The concentration of compound for 50% inhibition (IC50) was calculated employing non-linear regression using XL-Fit data analysis software. As a control compound, staurosporine is run in every assay and a Z′>0.5 is required to validate results.

[3] = target: T3, PDGFRb (Homo sapiens, UniProt P09619); assay: Inhibition of PDGFRb kinase in an in vitro biochemical assay (alphascreen); settings: tested at about 1 μM; read-out: PDGFR % inhibition at 1 μM
T3 construct: The kinase domain of PDGFRβ was assayed in 50 mM Hepes; purchased Invitrogen P3082
Procedure: as §1, §2

T3 sequence (P09619 600-962 limits assumed): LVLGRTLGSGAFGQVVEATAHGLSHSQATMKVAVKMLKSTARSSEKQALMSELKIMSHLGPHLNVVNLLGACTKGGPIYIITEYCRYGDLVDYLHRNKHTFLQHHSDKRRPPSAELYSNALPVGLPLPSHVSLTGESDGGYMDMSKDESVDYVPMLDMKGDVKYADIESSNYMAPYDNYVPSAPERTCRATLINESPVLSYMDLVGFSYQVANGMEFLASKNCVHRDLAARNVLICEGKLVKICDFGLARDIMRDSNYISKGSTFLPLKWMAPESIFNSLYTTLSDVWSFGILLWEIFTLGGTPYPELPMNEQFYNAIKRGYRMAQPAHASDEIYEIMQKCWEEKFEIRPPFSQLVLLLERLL
T2 sequence (P10721 589-937 limits assumed): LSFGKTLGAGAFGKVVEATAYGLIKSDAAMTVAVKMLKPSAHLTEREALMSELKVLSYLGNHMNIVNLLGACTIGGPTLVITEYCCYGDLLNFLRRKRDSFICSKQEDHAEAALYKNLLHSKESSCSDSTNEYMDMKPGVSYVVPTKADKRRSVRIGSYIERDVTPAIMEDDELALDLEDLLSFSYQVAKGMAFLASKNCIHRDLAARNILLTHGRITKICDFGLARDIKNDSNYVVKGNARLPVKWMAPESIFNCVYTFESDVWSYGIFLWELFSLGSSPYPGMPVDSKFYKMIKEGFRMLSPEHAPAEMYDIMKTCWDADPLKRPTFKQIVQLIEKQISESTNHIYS

| Structure (SMILES) | inhibition at 1 µM [1] [%] | inhibition at 1 µM [2] [%] | inhibition at 1 µM [3] [%] |
| --- | --- | --- | --- |
| CNC(=O)c1cc(Oc2ccc3nc(Nc4ccccc4OCCOC)ncc3c2)ccn1 [Example 69, 4-(2-(2-(2-methoxyethoxy)phenylamino)quinazolin-6-yloxy)-N-methylpicolinamide] | 99 | 17 | 5 |
| CNC(=O)c1cc(Oc2ccc3nc(Nc4ccccc4OCCO)ncc3c2)ccn1 [Example 70, 4-(2-(2-(2-hydroxyethoxy)phenylamino)quinazolin-6-yloxy)-N-methylpicolinamide] | 95 | 11 | 13 |
| CNC(=O)c1cc(Oc2ccc3nc(Nc4ccccc4OCCCO)ncc3c2)ccn1 [Example 71, 4-(2-(2-(3-hydroxypropoxy)phenylamino)quinazolin-6-yloxy)-N-methylpicolinamide] | 90 | < 1 | 11 |
| CNC(=O)c1cc(Oc2ccc3nc(NC(=O)c4ccccc4)ncc3c2)ccn1 [Example 72, 4-(2-benzamidoquinazolin-6-yloxy)-N-methylpicolinamide] | 98 | 13 | 43 |
| OC(c1ccncc1)c1ccc2nc(NCC3CCCCC3)sc2c1 (stereo not drawn) [Example 76, (2-(cyclohexylmethylamino)benzo [d]thiazol-6-yl)(pyridin-4-yl)methanol] | 65 | 49 | 27 |
| c1cc(Cc2ccc3nc(NCC4CCCCC4)sc3c2)ccn1 [Example 77, N-(cyclohexylmethyl)-6-(pyridin-4-ylmethyl)benzo[d]thiazol-2-amine] | 74 | 10 | 16 |
| CNC(=O)c1cc(Sc2ccc3nc(NCC4CCCCC4)sc3c2)ccn1 [Example 78, 4-(2-(cyclohexylmethylamino)benzo [d]thiazol-6-ylthio)-N-methylpicolinamide] | 100 | 13 | 34 |
| CNC(=O)c1cc(Nc2ccc3nc(N[C@@H]4CCCC[C@H]4O)sc3c2)ccn1 [Example 79, 4-(2-((1R,2R)-2-hydroxycyclohexylamino)benzo[d]thiazol-6-ylamino)-N-methylpicolinamide] | 97 | 13 | < 1 |
| CNC(=O)c1cc(Oc2ccc3nc(N[C@H](C)C4CCCCC4)[nH]c3c2)ccn1 [Example 83, (R)-4-(2-(1-cyclohexylethylamino)-1H-benzo[d]imidazol-6-yloxy)-N-methylpicolinamide] | 100 | 100 | 100 |

Continued, values first:

| inhibition at 1 µM [1] [%] | inhibition at 1 µM [2] [%] | inhibition at 1 µM [3] [%] | Structure (SMILES) |
| --- | --- | --- | --- |
| 62 | 8 | 19 | CNC(=O)c1cc(Oc2ccc3nc(N[C@@H]4CCCC[C@H]4N)ncc3c2)ccn1 [Example 73, 4-(2-((1R,2R)-2-aminocyclohexylamino)quinazolin-6-yloxy)-N-methylpicolinamide] |
| 100 | 18 | < 1 | CNC(=O)c1cc(Oc2ccc3nc(NC4CCCCC4)ncc3c2)ccn1 [Example 74, 4-(2-(cyclohexylamino)quinazolin-6-yloxy)-N-methylpicolinamide] |
| 99 | 39 | 71 | CNC(=O)c1cc(Oc2ccc3sc(N[C@@H]4CCCC[C@H]4O)nc3c2)ccn1 [Example 81, 4-(2-((1R,2R)-2-hydroxycyclohexylamino)benzo[d]thiazol-5-yloxy)-N-methylpicolinamide] |
| 99 | 30 | 30 | CNC(=O)c1cc(Oc2ccc3nc(N[C@@H]4CCCC[C@H]4O)[nH]c3c2)ccn1 [Example 82, 4-(2-((1R,2R)-2-hydroxycyclohexylamino)-1H-benzo[d]imidazol-6-yloxy)-N-methylpicolinamide] |
